Measurements reported in patent publication US4962112A, “7-(2-methyl-4-aminopyrrolidinyl)naphthryidine and quinoline compounds” (Abbott Laboratories, priority 1988, dated 1990).
In brackets after ≈: the same amount, converted by molar mass. Where two headings read alike, the source gives them in different places.

Tests used:
S. pyogenes = test: In vitro antibacterial activity, agar dilution MIC; format: cell-based; details: Streptococcus pyogenes, 18 h, S. pyogenes M79061-98
E. faecalis = test: In vitro antibacterial activity, agar dilution MIC; format: cell-based; details: Enterococcus faecalis, 18 h
P. mirabilis = test: In vitro antibacterial activity, agar dilution MIC; format: cell-based; details: Proteus mirabilis, 18 h
H. influenza = test: In vitro antibacterial activity, agar dilution MIC; format: cell-based; details: 18 h
Procedure: (§1) The in vitro antibacterial activity of the test compound was determined by conventional agar dilution procedures. The organisms were grown overnight in brain-heart infusion (BHI) broth (Difco 0037-01-6) at 36° C. Twofold dilutions of the stock solution ([…]) of the test compound were made in BHI agar obtain a test concentration ranging from […]. The plate was inoculated with approximately 10^4 organisms. It was then incubated at 36° C. for 18 h. the minimal inhibitory concentration was the lowest concentration of the test compound that yielded no visible growth on the plate.

L. bozemanni = test: In vitro antibacterial activity, agar dilution MIC; format: cell-based; details: 18 h; L. bozemanni ATCC 33217
Procedure: as §1

S. aureus = test: In vitro antibacterial activity, agar dilution MIC; format: cell-based; details: Staphylococcus aureus
Procedure: as §1

E. coli = test: In vitro antibacterial activity, agar dilution MIC; format: cell-based; details: Escherichia coli
Procedure: as §1

[1] = Aqueous solubility in Ringer's buffer at pH 7.5 (HPLC); format: physicochemical
Procedure: A known excess weight of the compound was shaken overnight with a known volume of Ringer's buffer (bicarbonate buffer containing sodium, potassium, calcium and magnesium ions, initially adjusted to pH 7.5). The contents were filtered, and the clear filtrate was analyzed after appropriate dilution using HPLC (UV absorbance detection).

P. aeruginosa = test: In vitro antibacterial activity, agar dilution MIC; format: cell-based; details: Pseudomonas aeruginosa, 18 h
K. pneumoniae = test: In vitro antibacterial activity, agar dilution MIC; format: cell-based, Klebsiella pneumoniae
N. gonorrhoeae = test: In vitro antibacterial activity, agar dilution MIC; format: cell-based; details: Neisseria gonorrhoeae, 18 h
C. difficile = test: In vitro antibacterial activity, agar dilution MIC; format: cell-based; details: Clostridioides difficile
B. fragilis = test: In vitro antibacterial activity, agar dilution MIC; format: cell-based; details: Bacteroides fragilis
S. agalactiae = test: In vitro antibacterial activity, agar dilution MIC; format: cell-based; details: Streptococcus agalactiae, 18 h; S. agalactiae CMX 508 (Table 1)
L. pneumophila = test: microbe, parasite or virus in culture; format: cell-based; details: Legionella pneumophila
[2] = Oral pharmacokinetics, blood level by disk agar diffusion bioassay; format: in vivo, Mice; details: for serum concentrations / blood levels (in words): versus analogs A and B at 100 mg/kg; for Blood Level of Compound: oral 100 mg/kg
Procedure: Mice were administered the quantity of compound indicated orally, as a single dose. At the specified time intervals, blood was collected from groups of five mice. All samples were assayed by a disk agar diffusion bioassay procedure. Bacillus subtilis 6633 or Klebsiella pneumoniae 10032 were used as the assay organisms, and seek agar medium No. 1 (BBL Microbiology Systems; Cockeysville, MD) was the growth medium. The plates were incubated at 32° C for 18 h and read with an image analyzer (Optomax Inc.).

[3] = H. influenza 588A, read-out: MIC
[4] = ATCC25923, 18 h, S. aureus ATCC 25923
[5] = ATCC25922, 18 h, E. coli ATCC 25922
[6] = compared with 2-unsubstituted aminopyrrolidine analogs
[7] = Klebsiella pneumoniae, 18 h, K. pneumoniae CMX 724A, read-out: MIC
[8] = ATCC9689, 18 h, C. difficile ATCC 9689
[9] = ATCC17857, 18 h, C. difficile ATCC 17857

## C[C@H]1C[C@H](N)CN1c1nc2c(cc1F)c(=O)c(C(=O)O)cn2-c1ccc(F)cc1F [Example 2, (2'S,4'S)-7-(4'-Amino-2'-methylpyrrolidin-1'-yl)-1-(o,p-difluorophenyl)-1,4-dihydro-6-fluoro-4-oxo-1,8-naphthyridine-3-Carboxylic Acid]
S. pyogenes
  MIC: 0.25 µg/mL (≈ 0.598 µM)
E. faecalis; E. faecalis CMX 729G
  MIC: 0.25 µg/mL (≈ 0.598 µM)
E. faecalis; E. faecalis GYR 1166
  MIC: 0.5 µg/mL (≈ 1.2 µM)
P. mirabilis; P. mirabilis CMX 704F
  MIC: 0.25 µg/mL (≈ 0.598 µM)
P. mirabilis; P. mirabilis CMX 729B
  MIC: 0.25 µg/mL (≈ 0.598 µM)
H. influenza; H. influenza 504
  MIC: 0.008 µg/mL (≈ 0.0191 µM)
H. influenza; H. influenza 519A
  MIC: 0.008 µg/mL (≈ 0.0191 µM)
H. influenza; H. influenza 566A
  MIC: 0.008 µg/mL (≈ 0.0191 µM)
H. influenza; [3]
  MIC: 0.008 µg/mL (≈ 0.0191 µM)
L. bozemanni
  MIC: 0.25 µg/mL (≈ 0.598 µM)
S. aureus; 18 h, S. aureus CMX 705
  MIC: 0.03 µg/mL (≈ 0.0717 µM)
S. aureus; 18 h, S. aureus CMX 730A
  MIC: 0.03 µg/mL (≈ 0.0717 µM)
S. aureus; 18 h, S. aureus GYR 1162
  MIC: 0.03 µg/mL (≈ 0.0717 µM)
S. aureus; [4]
  MIC: 0.06 µg/mL (≈ 0.143 µM)
E. coli; 18 h, E. coli CMX 733
  MIC: 0.03 µg/mL (≈ 0.0717 µM)
E. coli; 18 h, E. coli CMX 744A
  MIC: 0.03 µg/mL (≈ 0.0717 µM)
E. coli; 18 h, E. coli CMX 756
  MIC: 0.03 µg/mL (≈ 0.0717 µM)
E. coli; [5]
  MIC: 0.03 µg/mL (≈ 0.0717 µM)
[1]; at pH 7.5 in Ringer's buffer
  AQUEOUS SOLUBILITY: 0.15 mg/mL
[1]; [6]
  solubility properties (in words): significantly improved aqueous solubility properties
P. aeruginosa; P. aeruginosa A 5005
  MIC: 0.5 µg/mL (≈ 1.2 µM)
P. aeruginosa; P. aeruginosa CFS 350F
  MIC: 0.5 µg/mL (≈ 1.2 µM)
P. aeruginosa; P. aeruginosa CFS 387C
  MIC: 0.5 µg/mL (≈ 1.2 µM)
P. aeruginosa; P. aeruginosa CMX 719A
  MIC: 2 µg/mL (≈ 4.78 µM)
K. pneumoniae; K. pneumoniae CMX 735A
  MIC: 0.06 MCG/ML
K. pneumoniae; [7]
  MIC: 0.06 µg/mL (≈ 0.143 µM)
N. gonorrhoeae; N. gonorrhoeae 35F AMPI
  MIC: 0.004 µg/mL (≈ 0.00956 µM)
N. gonorrhoeae; N. gonorrhoeae CMX 591
  MIC: 0.06 µg/mL (≈ 0.143 µM)
C. difficile; [8]
  MIC: 1 µg/mL (≈ 2.39 µM)
C. difficile; [9]
  MIC: 1 µg/mL (≈ 2.39 µM)
B. fragilis; 18 h, B. fragilis AT25285
  MIC: 0.5 µg/mL (≈ 1.2 µM)
B. fragilis; UC2, 18 h, B. fragilis UC-2
  MIC: 0.5 µg/mL (≈ 1.2 µM)
S. agalactiae
  MIC: 0.12 µg/mL (≈ 0.287 µM)
L. pneumophila; 18 h
  MIC: 0.25 µg/mL (≈ 0.598 µM)
L. pneumophila; ATCC33152, 18 h
  MIC: 0.25 µg/mL (≈ 0.598 µM)
[2]; [6]
  oral absorption properties (in words): greatly improved oral absorption properties
[2]; mouse, blood, mice, oral 25 mg/kg, t = 0.5 h, read-out: Blood Level of Compound
  concentration at 0.5 h: 5900 ng/mL
[2]; mouse, blood, mice, oral 25 mg/kg, t = 1.0 h, read-out: Blood Level of Compound
  concentration at 1 h: 3200 ng/mL
[2]; mouse, blood, mice, oral 25 mg/kg, t = 2.0 h, read-out: Blood Level of Compound
  concentration at 2 h: 3300 ng/mL
[2]; mouse, blood, mice, oral 25 mg/kg, t = 3.0 h, read-out: Blood Level of Compound
  concentration at 3 h: 2800 ng/mL
[2]; mouse, blood, mice, oral 25 mg/kg, t = 6.0 h, read-out: Blood Level of Compound
  concentration at 6 h: 1300 ng/mL
[2]; mouse, blood, mice, oral 25 mg/kg, t = 24.0 h, read-out: Blood Level of Compound
  concentration at 24 h: 200 ng/mL
[2]; oral 25 mg/kg
  serum concentrations / blood levels (in words): still achieve better blood
[2]; oral 25 mg/kg, listed as Compound 2
  serum concentrations / blood levels (in words): higher serum concentrations

## NC1CCN(c2nc3c(cc2F)c(=O)c(C(=O)O)cn3-c2ccc(F)cc2F)C1 (stereo not shown) [Example A, 7-(3-Amino-pyrrolidin-1-yl)-1-(2,4-difluorophenyl)-1,4-dihydro-6-fluoro--oxo-1,8-naphthyridine-3-carboxylic acid, reference compound]
S. pyogenes
  MIC: 0.25 µg/mL (≈ 0.618 µM)
E. faecalis; E. faecalis CMX 729G
  MIC: 0.25 µg/mL (≈ 0.618 µM)
E. faecalis; E. faecalis GYR 1166
  MIC: 0.5 µg/mL (≈ 1.24 µM)
P. mirabilis; P. mirabilis CMX 704F
  MIC: 0.25 µg/mL (≈ 0.618 µM)
P. mirabilis; P. mirabilis CMX 729B
  MIC: 0.12 µg/mL (≈ 0.297 µM)
H. influenza; H. influenza 504
  MIC: 0.15 µg/mL (≈ 0.371 µM)
H. influenza; H. influenza 519A
  MIC: 0.15 µg/mL (≈ 0.371 µM)
H. influenza; H. influenza 566A
  MIC: 0.15 µg/mL (≈ 0.371 µM)
H. influenza; [3]
  MIC: 0.008 µg/mL (≈ 0.0198 µM)
L. bozemanni
  MIC: 0.5 µg/mL (≈ 1.24 µM)
S. aureus; 18 h, S. aureus CMX 705
  MIC: 0.03 µg/mL (≈ 0.0742 µM)
S. aureus; 18 h, S. aureus CMX 730A
  MIC: 0.03 µg/mL (≈ 0.0742 µM)
S. aureus; 18 h, S. aureus GYR 1162
  MIC: 0.03 µg/mL (≈ 0.0742 µM)
S. aureus; [4]
  MIC: 0.03 µg/mL (≈ 0.0742 µM)
E. coli; 18 h, E. coli CMX 733
  MIC: 0.03 µg/mL (≈ 0.0742 µM)
E. coli; 18 h, E. coli CMX 744A
  MIC: 0.03 µg/mL (≈ 0.0742 µM)
E. coli; 18 h, E. coli CMX 756
  MIC: 0.03 µg/mL (≈ 0.0742 µM)
E. coli; [5]
  MIC: 0.03 µg/mL (≈ 0.0742 µM)
[1]; at pH 7.5 in Ringer's buffer
  solubility: 8 µg/mL (≈ 19.8 µM)
P. aeruginosa; P. aeruginosa A 5005
  MIC: 0.5 µg/mL (≈ 1.24 µM)
P. aeruginosa; P. aeruginosa CFS 350F
  MIC: 0.5 µg/mL (≈ 1.24 µM)
P. aeruginosa; P. aeruginosa CFS 387C
  MIC: 1 µg/mL (≈ 2.47 µM)
P. aeruginosa; P. aeruginosa CMX 719A
  MIC: 2 µg/mL (≈ 4.95 µM)
K. pneumoniae; K. pneumoniae CMX 735A
  MIC: 0.06 MCG/ML
K. pneumoniae; [7]
  MIC: 0.06 µg/mL (≈ 0.148 µM)
N. gonorrhoeae; N. gonorrhoeae 35F AMPI
  MIC: 0.004 µg/mL (≈ 0.00989 µM)
N. gonorrhoeae; N. gonorrhoeae CMX 591
  MIC: 0.06 µg/mL (≈ 0.148 µM)
C. difficile; [8]
  MIC: 1.6 µg/mL (≈ 3.96 µM)
C. difficile; [9]
  MIC: 0.8 µg/mL (≈ 1.98 µM)
B. fragilis; 18 h, B. fragilis AT25285
  MIC: 0.4 µg/mL (≈ 0.989 µM)
B. fragilis; UC2, 18 h, B. fragilis UC-2
  MIC: 0.8 µg/mL (≈ 1.98 µM)
S. agalactiae
  MIC: 0.12 µg/mL (≈ 0.297 µM)
L. pneumophila; 18 h
  MIC: 0.25 µg/mL (≈ 0.618 µM)
L. pneumophila; ATCC33152, 18 h
  MIC: 0.25 µg/mL (≈ 0.618 µM)
[2]; mice, t = 1.0 h
  Blood Level of Compound: 2300 ng/mL
[2]; mice, t = 2.0 h
  Blood Level of Compound: 1700 ng/mL
[2]; mice, t = 3.0 h
  Blood Level of Compound: 1700 ng/mL
[2]; mice, t = 6.0 h
  Blood Level of Compound: 900 ng/mL
